Laboratory results: patent US20110105509A1 (Wyeth, LLC, priority 2009, published 2011)

molecular target: T1, CRTH2 (Homo sapiens, UniProt Q9Y5Y4); assay: FRET based competitive immunoassay (cAMP) in CRTH2 expressing CHO cells; type: cell-based; settings: CRTH2 expressing CHO cells incubated with forskolin and PGD2; Eu3+ cryptate-labeled anti-cAMP and d2-labeled cAMP
T1 construct: expressed in transfected cells; host or cells: CHO cells
T1 sequence (Q9Y5Y4 1-395): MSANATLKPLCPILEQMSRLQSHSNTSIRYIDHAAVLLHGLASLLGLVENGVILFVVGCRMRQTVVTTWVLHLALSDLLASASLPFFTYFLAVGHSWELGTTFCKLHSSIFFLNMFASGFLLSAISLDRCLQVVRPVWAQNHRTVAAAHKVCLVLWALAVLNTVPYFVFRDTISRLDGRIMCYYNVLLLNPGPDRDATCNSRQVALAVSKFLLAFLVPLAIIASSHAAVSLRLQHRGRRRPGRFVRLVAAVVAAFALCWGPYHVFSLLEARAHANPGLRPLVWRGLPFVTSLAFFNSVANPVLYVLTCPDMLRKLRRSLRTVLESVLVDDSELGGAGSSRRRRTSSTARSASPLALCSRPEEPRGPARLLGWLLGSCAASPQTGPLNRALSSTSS
Method: FRET Assay: To evaluate potency compounds were tested in a FRET based competitive immunoassay in which CRTH2 expressing CHO cells were incubated in the presence of forskolin and PGD2 along with Eu3+ cryptate-labeled anti-cAMP and d2-labeled cAMP.

| IC50 [nM] | Compound |
| --- | --- |
| > 2000 | Cc1c(-c2nn(Cc3ccccc3)c(=O)c3ccccc23)c2ccccc2n1CCO [Example 52, 2-Benzyl-4-(1-(2-hydroxyethyl)-2-methyl-1H-indol-3-yl)phthalazin-1(2H)-one] |
| 55 | Cc1c(Cc2ccc(=O)n(CC(F)(F)F)c2)c2cc(Cl)ccc2n1CC(=O)O [Example 53, 2-(5-Chloro-2-methyl-3-((6-oxo-1-(2,2,2-trifluoroethyl)-1,6-dihydropyridin-3-yl)methyl)-1H-indol-1-yl)acetic acid] |
| 329 | Cc1c(Cc2ccc(=O)n(CCCC(F)(F)F)c2)c2cc(F)ccc2n1CC(=O)O [Example 54, 2-(5-Fluoro-2-methyl-3-((6-oxo-1-(4,4,4-trifluorobutyl)-1,6-dihydropyridin-3-yl)methyl)-1H-indol-1-yl)acetic acid] |
| > 2000 | CC(=O)Nc1cccc2c1c(Cc1ccc(=O)n(Cc3ccc(F)cc3F)n1)c(C)n2CC(=O)O [Example 55, 2-(4-Acetamido-3-((1-(2,4-difluorobenzyl)-6-oxo-1,6-dihydropyridazin-3-yl)-methyl)-2-methyl-1H-indol-1-yl)acetic acid] |
| 5 | Cc1c(CC2=NN(Cc3ccc(F)cc3F)C(=O)CC2)c2cc(F)ccc2n1CC(=O)O [Example 56, 2-(3-((1-(2,4-Difluorobenzyl)-6-oxo-1,4,5,6-tetrahydropyridazin-3-yl)methyl)-5-fluoro-2-methyl-1H-indol-1-yl)acetic acid] |
| 5 | Cc1c(CC2=NN(CC(F)(F)F)C(=O)CC2)c2cc(F)ccc2n1CC(=O)O [Example 57, 2-(5-Fluoro-2-methyl-3-((6-oxo-1-(2,2,2-trifluoroethyl)-1,4,5,6-tetrahydropyridazin-3-yl)-methyl)-1H-indol-1-yl)acetic acid] |
| 18 | Cc1c(CC2=NN(CCCC(F)(F)F)C(=O)CC2)c2cc(F)ccc2n1CC(=O)O [Example 58, 2-(5-Fluoro-2-methyl-3-((6-oxo-1-(4,4,4-trifluorobutyl)-1,4,5,6-tetrahydro-pyridazin-3-yl)methyl)-1H-indol-1-yl)acetic acid] |
| 12 | Cc1c(-c2nn(Cc3cc(F)ccc3F)c(=O)c3ccccc23)c2cc(Cl)ccc2n1CC(=O)O [Example 59, 2-(5-Chloro-3-(3-(2,5-difluorobenzyl)-4-oxo-3,4-dihydrophthalazin-1-yl)-2-methyl-1H-indol-1-yl)acetic acid] |
| 11 | Cc1c(-c2nn(Cc3cc(F)c(F)cc3F)c(=O)c3ccccc23)c2cc(Cl)ccc2n1CC(=O)O [Example 60, 2-(5-chloro-2-methyl-3-(4-oxo-3-(2,4,5-trifluorobenzyl)-3,4-dihydro-phthalazin-1-yl)-1H-indol-1-yl)acetic acid] |
| 11 | Cc1c(-c2nn(Cc3ccc(F)cc3F)c(=O)c3ccccc23)c2cc(Cl)ccc2n1CC(=O)O [Example 61, 2-(5-chloro-3-(3-(2,4-difluorobenzyl)-4-oxo-3,4-dihydrophthalazin-1-yl)-2-methyl-1H-indol-1-yl)acetic acid] |

The next lines start with the compound.

| Compound | IC50 [nM] |
| --- | --- |
| Cc1c(Cc2ccc(=O)n(Cc3cc(F)cc(F)c3)c2)c2ccccc2n1CC(=O)O [Example 35, 2-(3-((1-(3,5-Difluorobenzyl)-6-oxo-1,6-dihydropyridin-3-yl)methyl)-2-methyl-1H-indol-1-yl)acetic acid] | 65 |
| Cc1c(Cc2ccc(=O)n(Cc3cc(F)cc(F)c3)c2)c2cc(F)ccc2n1CC(=O)O [Example 36, 2-(3-((1-(3,5-Difluorobenzyl)-6-oxo-1,6-dihydropyridin-3-yl)methyl)-5-fluoro-2-methyl-1H-indol-1-yl)acetic acid] | 2 |
| Cc1c(Cc2ccc(=O)n(Cc3c(F)cccc3F)c2)c2ccccc2n1CC(=O)O [Example 37, 2-(3-((1-(2,6-Difluorobenzyl)-6-oxo-1,6-dihydropyridin-3-yl)methyl)-2-methyl-1H-indol-1-yl)acetic acid] | 35 |
| Cc1c(Cc2ccc(=O)n(Cc3c(F)cccc3F)c2)c2cc(F)ccc2n1CC(=O)O [Example 38, 2-(3-((1-(2,6-Difluorobenzyl)-6-oxo-1,6-dihydropyridin-3-yl)methyl)-5-fluoro-2-methyl-1H-indol-1-yl)acetic acid] | 7 |
| Cc1c(Cc2ccc(=O)n(Cc3cccc(F)c3)c2)c2cc(F)ccc2n1CC(=O)O [Example 39, 2-(5-Fluoro-3-((1-(3-fluorobenzyl)-6-oxo-1,6-dihydropyridin-3-yl)methyl)-2-methyl-1H-indol-1-yl)acetic acid] | 4 |
| Cc1c(Cc2ccc(=O)n(Cc3ccc(F)cc3)c2)c2ccccc2n1CC(=O)O [Example 40, 2-(3-((1-(4-Fluorobenzyl)-6-oxo-1,6-dihydropyridin-3-yl)methyl)-2-methyl-1H-indol-1-yl)acetic acid] | 30 |
| Cc1c(Cc2ccc(=O)n(Cc3ccc(F)cc3)c2)c2cc(F)ccc2n1CC(=O)O [Example 41, 2-(5-Fluoro-3-((1-(4-fluorobenzyl)-6-oxo-1,6-dihydropyridin-3-yl)methyl)-2-methyl-1H-indol-1-yl)acetic acid] | 3 |
| Cc1c(Cc2ccc(=O)n(Cc3ccc(F)cc3F)c2)c2cc(Cl)ccc2n1CC(=O)O [Example 42, 2-(5-Chloro-3-((1-(2,4-difluorobenzyl)-6-oxo-1,6-dihydropyridin-3-yl)-methyl)-2-methyl-1H-indol-1-yl)acetic acid] | 7 |
| Cc1c(Cc2ccc(=O)n(Cc3cccc(F)c3F)c2)c2cc(Cl)ccc2n1CC(=O)O [Example 43, 2-(5-Chloro-3-((1-(2,3-difluorobenzyl)-6-oxo-1,6-dihydropyridin-3-yl)-methyl)-2-methyl-1H-indol-1-yl)acetic acid] | 9 |
| Cc1c(Cc2ccc(=O)n(Cc3cccc(F)c3)c2)c2cc(Cl)ccc2n1CC(=O)O [Example 45, 2-(5-Chloro-3-((1-(3-fluorobenzyl)-6-oxo-1,6-dihydropyridin-3-yl)methyl)-2-methyl-1H-indol-1-yl)acetic acid] | 5 |
| Cc1c(Cc2ccc(=O)n(CC(F)(F)F)c2)c2cc(F)ccc2n1CC(=O)O [Example 46] | 55 |
| Cc1c(-c2nn(Cc3ccccc3)c(=O)c3ccccc23)c2ccccc2n1CC(N)=O [Example 47, 2-(3-(3-Benzyl-4-oxo-3,4-dihydrophthalazin-1-yl)-2-methyl-1H-indol-1-yl)-acetamide] | > 2000 |
| Cc1c(-c2nn(Cc3ccccc3)c(=O)c3ccccc23)c2ccccc2n1CC(=O)N(C)C [Example 48, 2-(3-(3-Benzyl-4-oxo-3,4-dihydrophthalazin-1-yl)-2-methyl-1H-indol-1-yl)-N,N-dimethylacetamide] | > 2000 |
| Cc1c(-c2nn(Cc3ccccc3)c(=O)c3ccccc23)c2ccccc2n1CC(=O)N1CCCC1 [Example 49, 2-Benzyl-4-(2-methyl-1-(2-oxo-2-(pyrrolidin-1-yl)ethyl)-1H-indol-3-yl)phthalazin-1(2H)-one] | > 2000 |
| Cc1c(-c2nn(Cc3ccccc3)c(=O)c3ccccc23)c2ccccc2n1CC(=O)NS(C)(=O)=O [Example 50, 2-(3-(3-Benzyl-4-oxo-3,4-dihydrophthalazin-1-yl)-2-methyl-1H-indol-1-yl)-N-(methylsulfonyl)acetamide] | > 1500 |
| Cc1c(-c2nn(Cc3ccccc3)c(=O)c3ccccc23)c2ccccc2n1Cc1nn[nH]n1 [Example 51, 4-(1-((2H-Tetrazol-5-yl)methyl)-2-methyl-1H-indol-3-yl)-2-benzyl-phthalazin-1(2H)-one] | > 2000 |
